# Results taken from patent publication US20250235455A1, “AQUEOUS TICAGRELOR SOLUTIONS, METHOD OF MANUFACTURING AND USES” (HYLORIS DEVELOPMENTS SA, priority 2022, published 2025).
# Experiments:
# Type in all cases: physicochemical
# [1] = Storage stability in amber glass vials at pH 7, 7.5 and 8, 19 mM buffer; conditions: for Acetal impurity / Amine impurity / Description / Regiomer / Sum Impurities >0.05 / Total impurity / Triol impurity / pH / Assay: HPβCD 40% w/w; for Assay: in %
# Method: To optimize the HPβCD concentration and the pH of the solution for intravenous use, a 12 week/3 months stability study was conducted. […] Its stability was tested at regular intervals.
# A comparison of stability profile at 3 different pH—7, 7.5 and 8—was carried out as below, the manufacturing process for all 3 formulations was kept constant with buffer strength at 19 mM.
# [2] = Impact of ticagrelor particle size on dissolution
# Excerpt: Two different particle size diameters for the ticagrelor active ingredient were screened, 5.5 and 15 micrometers. The pH and osmolality were not affected.
# [3] = Solubility of ticagrelor in aqueous vitamin E TPGS solutions
# Method: Aqueous ticagrelor solutions were prepared using vitamin E TPGS as solubilizer for ticagrelor. Water soluble vitamin E TPGS was added to water to obtain different concentrations of 2.5 and 5.0 and 10.0 w/v % aqueous vitamin E TPGS solutions. To these solutions, kept at a temperate of 45° C.+/−5° C., portions of ticagrelor were gradually added.
# In the experiment summarized in Table 29, 3 mg ticagrelor portions were added step-by-step to a 50 ml aqueous vitamin E TPGS solution (1st stage).
# 20 ml of each diluent were then used in a 2nd stage study. To 20 ml of each diluent 10 mg ticagrelor portions were added. This was reduced to 5 mg when the dissolution was taking longer.
# [4] = Diluent tests of 5 mg/ml ticagrelor-cyclodextrin solutions; conditions: for Appearance, undiluted: 5 mg/ml; for Appearance in 5% dextrose / Appearance in NaCl 0.9%: diluted to 0.1 mg/ml
# Method: 5 mg/ml ticagrelor-cyclodextrin solutions with varying amounts of HPβCD were diluted with normal saline, 5% dextrose solution or Ringer's lactate solution. The stability was screened.
# Flocculation test = assay: Flocculation test
# [5] = 19 mM pH 7 Phosphate Buffer, 1 M
# [6] = 19 mM pH 7 Phosphate Buffer, 2 M
# [7] = 19 mM pH 7 Phosphate Buffer, 3 M
# [8] = 19 mM pH 7 Phosphate Buffer, T0
# [9] = 19 mM pH 7.5 Phosphate Buffer, 1 M
# [10] = 19 mM pH 7.5 Phosphate Buffer, 2 M
# [11] = 19 mM pH 7.5 Phosphate Buffer, 3 M
# [12] = 19 mM pH 7.5 Phosphate Buffer, T0
# [13] = 19 mM pH 8 Phosphate buffer, 1 M
# [14] = 19 mM pH 8 Phosphate buffer, 2 M
# [15] = 19 mM pH 8 Phosphate buffer, 3 M
# [16] = 19 mM pH 8 Phosphate buffer, T0
smiles,measurement,setting,value
"CCCSc1nc(N[C@@H]2C[C@H]2c2ccc(F)c(F)c2)c2nnn([C@@H]3C[C@H](OCCO)[C@@H](O)[C@H]3O)c2n1 [Ticagrelor, (1S,2S,3R,5S)-3-{7-[(1R,2S)-2-(3,4-difluorophenyl)cyclopropylamino]5-(propylthio)-3H-(1,2,3)triazolo (4,5-D)pyrimidin-3-yl}-5-(2 hydroxyethoxy)cyclopentane-1,2-diol]",Acetal impurity,[1]; [5],0.05%
same,Amine impurity,[1]; [5],0.04%
same,Description,[1]; [5],clear
same,Regiomer,[1]; [5],0.03%
same,Sum Impurities >0.05,[1]; [5],0.05%
same,Total impurity,[1]; [5],0.27%
same,Triol impurity,[1]; [5],0.02%
same,pH,[1]; [5],7.34
same,Assay,[1]; [5],99.73
same,Acetal impurity,[1]; [6],0.05%
same,Amine impurity,[1]; [6],0.04%
same,Description,[1]; [6],clear
same,Regiomer,[1]; [6],0.06%
same,Sum Impurities >0.05,[1]; [6],0.11%
same,Total impurity,[1]; [6],0.34%
same,Triol impurity,[1]; [6],0.04%
same,pH,[1]; [6],7.34
same,Assay,[1]; [6],99.81
same,Acetal impurity,[1]; [7],0.05%
same,Amine impurity,[1]; [7],0.06%
same,Description,[1]; [7],clear
same,Regiomer,[1]; [7],0.11%
same,Sum Impurities >0.05,[1]; [7],0.22%
same,Total impurity,[1]; [7],0.40%
same,Triol impurity,[1]; [7],0.04%
same,pH,[1]; [7],7.30
same,Assay,[1]; [7],98.51
same,Acetal impurity,[1]; [8],0.05%
same,Amine impurity,[1]; [8],0.04%
same,Description,[1]; [8],clear
same,Regiomer,[1]; [8],0.00%
same,Sum Impurities >0.05,[1]; [8],0.22%
same,Total impurity,[1]; [8],0.41%
same,Triol impurity,[1]; [8],0.05%
same,pH,[1]; [8],7.33
same,Assay,[1]; [8],98.95
same,Acetal impurity,[1]; [9],0.05%
same,Amine impurity,[1]; [9],0.05%
same,Description,[1]; [9],clear
same,Regiomer,[1]; [9],0.01%
same,Sum Impurities >0.05,[1]; [9],0.14%
same,Total impurity,[1]; [9],0.32%
same,Triol impurity,[1]; [9],0.05%
same,pH,[1]; [9],7.50
same,Assay,[1]; [9],104.47
same,Acetal impurity,[1]; [10],0.05%
same,Amine impurity,[1]; [10],0.05%
same,Description,[1]; [10],clear
same,Regiomer,[1]; [10],0.04%
same,Sum Impurities >0.05,[1]; [10],0.15%
same,Total impurity,[1]; [10],0.29%
same,Triol impurity,[1]; [10],0.05%
same,pH,[1]; [10],7.48
same,Assay,[1]; [10],102.59
same,Acetal impurity,[1]; [11],0.05%
same,Amine impurity,[1]; [11],0.05%
same,Description,[1]; [11],clear
same,Regiomer,[1]; [11],0.08%
same,Sum Impurities >0.05,[1]; [11],0.23%
same,Total impurity,[1]; [11],0.41%
same,Triol impurity,[1]; [11],0.04%
same,pH,[1]; [11],7.55
same,Assay,[1]; [11],102.31
same,Acetal impurity,[1]; [12],0.05%
same,Amine impurity,[1]; [12],0.04%
same,Description,[1]; [12],clear
same,Regiomer,[1]; [12],0.00%
same,Sum Impurities >0.05,[1]; [12],0.11%
same,Total impurity,[1]; [12],0.31%
same,Triol impurity,[1]; [12],0.04%
same,pH,[1]; [12],7.40
same,Assay,[1]; [12],104.27
same,Acetal impurity,[1]; [13],0.05%
same,Amine impurity,[1]; [13],0.05%
same,Description,[1]; [13],clear
same,Regiomer,[1]; [13],0.01%
same,Sum Impurities >0.05,[1]; [13],0.09%
same,Total impurity,[1]; [13],0.26%
same,Triol impurity,[1]; [13],0.03%
same,pH,[1]; [13],8.10
same,Assay,[1]; [13],105.88
same,Acetal impurity,[1]; [14],0.05%
same,Amine impurity,[1]; [14],0.05%
same,Description,[1]; [14],clear
same,Regiomer,[1]; [14],0.03%
same,Sum Impurities >0.05,[1]; [14],0.15%
same,Total impurity,[1]; [14],0.32%
same,Triol impurity,[1]; [14],0.05%
same,pH,[1]; [14],8.04
same,Assay,[1]; [14],105.46
same,Acetal impurity,[1]; [15],0.05%
same,Amine impurity,[1]; [15],0.07%
same,Description,[1]; [15],clear
same,Regiomer,[1]; [15],0.06%
same,Sum Impurities >0.05,[1]; [15],0.23%
same,Total impurity,[1]; [15],0.37%
same,Triol impurity,[1]; [15],0.05%
same,pH,[1]; [15],8.03
same,Assay,[1]; [15],104.46
same,Acetal impurity,[1]; [16],0.05%
same,Amine impurity,[1]; [16],0.04%
same,Description,[1]; [16],clear
same,Regiomer,[1]; [16],0.00%
same,Sum Impurities >0.05,[1]; [16],0.25%
same,Total impurity,[1]; [16],0.43%
same,Triol impurity,[1]; [16],0.06%
same,pH,[1]; [16],8.07
same,Assay,[1]; [16],103.25
same,Stability of solution in HPβCD,[1]; pH range of 7 to 8,stable
same,Dissolution time,"[2]; D90 5.5 μm, micronized",33 min
same,Osmolality,"[2]; D90 5.5 μm, micronized",751 mOsm/kg
same,pH,"[2]; D90 5.5 μm, micronized",7.68
same,Dissolution time,"[2]; D90 15 μm, unmicronized",125 min
same,Osmolality,"[2]; D90 15 μm, unmicronized",753 mOsm/kg
same,pH,"[2]; D90 15 μm, unmicronized",7.70
same,Time for 10 mg ticagrelor to dissolve,[3],5 to 10 min
same,"Appearance, undiluted",[4]; HPβCD 22.5% w/w,Turbid; clear after heating to 40 °C
same,"Appearance, undiluted",[4]; HPβCD 25.0% w/w,Turbid; clear after heating to 40 °C
same,"Appearance, undiluted",[4]; HPβCD 27.5% w/w,Turbid; clear after heating to 40 °C
same,"Appearance, undiluted",[4]; HPβCD 30.0% w/w,Clear solution
same,"Appearance, undiluted",[4]; HPβCD 32.5% w/w,Clear solution
same,Appearance in 5% dextrose,[4]; HPβCD 22.5% w/w,Clear solution
same,Appearance in NaCl 0.9%,[4]; HPβCD 22.5% w/w,Turbid
same,Appearance in 5% dextrose,[4]; HPβCD 25.0% w/w,Clear solution
same,Appearance in NaCl 0.9%,[4]; HPβCD 25.0% w/w,Turbid
same,Appearance in 5% dextrose,[4]; HPβCD 27.5% w/w,Clear solution
same,Appearance in NaCl 0.9%,[4]; HPβCD 27.5% w/w,Turbid
same,Appearance in 5% dextrose,[4]; HPβCD 30.0% w/w,Clear solution
same,Appearance in NaCl 0.9%,[4]; HPβCD 30.0% w/w,Turbid
same,Appearance in 5% dextrose,[4]; HPβCD 32.5% w/w,Clear solution
same,Appearance in NaCl 0.9%,[4]; HPβCD 32.5% w/w,Clear solution
same,Appearance with diluent,[4]; Normal saline and Ringer's lactate solution as diluent,turbid solutions
same,Flocculation test,"Flocculation test; HPβCD 25% w/w, ticagrelor 5 mg/ml",did not pass
same,Flocculation test,"Flocculation test; HPβCD 30% w/w, ticagrelor 5 mg/ml",passed
same,Flocculation test,"Flocculation test; HPβCD 35% w/w, ticagrelor 5 mg/ml",passed
same,Flocculation test,"Flocculation test; HPβCD 35% w/w, ticagrelor 10 mg/ml",did not pass
same,Flocculation test,"Flocculation test; HPβCD 40% w/w, ticagrelor 5 mg/ml",passed
same,Flocculation test,"Flocculation test; HPβCD 40% w/w, ticagrelor 10 mg/ml",passed
same,Flocculation test,"Flocculation test; SBECD 40% w/w, ticagrelor 5 mg/ml",passed
